Active and inactive are the calls of the source. The rule behind the calls is not given here.
Tests used:
Escherichia coli [1] = assay: Antibacterial activity against Escherichia coli KCTC 1682 assessed as zone of clearance incubated for 4 hrs in presence of pepsin by radical diffusion assay; assay type: functional, organism-based
[2] = Proteolytic stability of compound assessed as trypsin (unknown origin)-mediated drug degradation at 150 uM incubated for 24 hrs by RP-HPLC analysis; assay type: ADME; conditions: human
Escherichia coli [3] = assay: Antibacterial activity against Escherichia coli KCTC 1682 assessed as zone of clearance incubated for 4 hrs in presence of trypsin by radical diffusion assay; assay type: functional, organism-based
Mus musculus [4] = assay: Antiseptic activity in sepsis shock ICR mouse model infected with carbapenem-resistant Acinetobacter baumannii assessed as decrease in IL-6 level in serum at 1 mg/kg, ip pretreated with compound for 1 hr followed by bacterial infection measured after 16 hrs relative to control; assay type: functional; design: scale not given: the % may be the effect or the level left; conditions: time 17 hrs
[5] = Effect on secondary structure of drug in TFE assessed as formation of left-handed alpha-helical conformation at 150 uM by CD analysis; assay type: physicochemical
Mus musculus [6] = assay: (§1) Antiseptic activity in sepsis shock ICR mouse model infected with carbapenem-resistant Acinetobacter baumannii assessed as reduction in bacterial count in liver at 1 mg/kg, ip pre-infected with bacteria followed by compound administration 1 hr post-infection measured after 16 hrs relative to control; assay type: functional; design: scale not given: the % may be the effect or the level left
[7] = target: T1, Toll-like receptor 4 (Mus musculus) (UniProt Q9QUK6); assay: Inhibition of LPS-induced TLR4 activation in mouse RAW264.7 cells assessed as decrease in phosphorylated NF-kappaB nuclear translocation at 10 uM pretreated for 1 hr followed by LPS treatment for 30 mins by CLSM analysis; assay type: cell-based; conditions: time 90.0 min
T1 sequence (whole entry): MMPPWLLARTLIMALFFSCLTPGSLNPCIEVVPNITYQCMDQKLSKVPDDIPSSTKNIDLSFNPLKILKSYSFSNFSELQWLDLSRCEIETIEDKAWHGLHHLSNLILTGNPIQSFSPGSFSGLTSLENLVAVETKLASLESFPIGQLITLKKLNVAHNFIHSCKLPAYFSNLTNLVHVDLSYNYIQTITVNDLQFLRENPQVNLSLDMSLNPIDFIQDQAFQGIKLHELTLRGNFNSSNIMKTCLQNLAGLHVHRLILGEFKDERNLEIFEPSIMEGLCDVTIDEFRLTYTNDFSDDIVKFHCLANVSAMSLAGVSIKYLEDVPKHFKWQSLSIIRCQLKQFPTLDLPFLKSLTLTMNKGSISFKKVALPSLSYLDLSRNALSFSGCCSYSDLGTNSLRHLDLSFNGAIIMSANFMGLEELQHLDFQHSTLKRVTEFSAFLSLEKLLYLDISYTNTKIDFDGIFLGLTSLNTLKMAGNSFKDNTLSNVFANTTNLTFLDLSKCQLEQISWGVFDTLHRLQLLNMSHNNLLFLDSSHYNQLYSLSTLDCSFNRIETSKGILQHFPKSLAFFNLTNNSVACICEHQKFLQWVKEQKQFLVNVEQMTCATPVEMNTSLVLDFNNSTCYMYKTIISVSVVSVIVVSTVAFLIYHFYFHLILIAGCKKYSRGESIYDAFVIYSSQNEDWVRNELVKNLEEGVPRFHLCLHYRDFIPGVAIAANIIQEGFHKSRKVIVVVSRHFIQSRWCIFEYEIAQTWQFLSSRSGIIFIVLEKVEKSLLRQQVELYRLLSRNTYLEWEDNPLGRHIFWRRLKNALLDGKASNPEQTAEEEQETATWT

Lipopolysaccharide (LPS) = assay: Displacement of BODIPY-TR-cadaverine from Escherichia coli 0111:B4 LPS at 16 uM incubated for 30 mins by fluorescence based assay relative to control
Mus musculus [8] = assay: Antiseptic activity in sepsis shock ICR mouse model infected with carbapenem-resistant Acinetobacter baumannii assessed as reduction in bacterial count in liver at 1 mg/kg, ip pretreated with compound for 1 hr followed by bacterial infection measured after 16 hrs relative to control; assay type: functional; design: scale not given: the % may be the effect or the level left; conditions: time 17 hrs
[9] = target: Toll-like receptor 4 (Homo sapiens) (UniProt O00206); assay: Inhibition of LPS-induced human TLR4 activation expressed in HEK-Blue hTLR4 cells assessed as decrease in SEAP activity at 25 uM pretreated for 1 hr followed by LPS treatment for 16 hrs by absorbance based assay relative to control; assay type: cell-based; conditions: time 17.0 hrs
Acinetobacter baumannii [10] = assay: Antibacterial activity against carbapenem-resistant Acinetobacter baumannii-induced sepsis shock in ICR mouse model assessed as bacterial growth inhibition in kidney at 1 mg/kg, ip pretreated with compound for 1 hr followed by bacterial infection measured after 16 hrs relative to control; assay type: functional; conditions: time 17 hrs
Mus musculus [11] = assay: Antiseptic activity in sepsis shock ICR mouse model infected with carbapenem-resistant Acinetobacter baumannii assessed as reduction in bacterial count in lungs at 1 mg/kg, ip pretreated with compound for 1 hr followed by bacterial infection measured after 16 hrs relative to control; assay type: functional; design: scale not given: the % may be the effect or the level left; conditions: time 17 hrs
[12] = target: T1, Toll-like receptor 4 (Mus musculus); assay: Inhibition of LPS-induced TLR4 activation in mouse RAW264.7 cells assessed as decrease in p38 MAPK phosphorylation at 2 uM pretreated for 1 hr followed by LPS treatment for 30 mins by Western blot analysis relative to control; assay type: cell-based; conditions: time 90.0 min
Mus musculus [13] = assay: as §1, with “3 hrs” for “1 hr”; assay type: functional; design: scale not given: the % may be the effect or the level left
Acinetobacter baumannii [14] = assay: Antibacterial activity against carbapenem-resistant Acinetobacter baumannii-induced sepsis shock in ICR mouse model assessed as bacterial growth inhibition in liver at 1 mg/kg, ip pretreated with compound for 1 hr followed by bacterial infection measured after 16 hrs relative to control; assay type: functional; conditions: time 17 hrs
Acinetobacter baumannii [15] = assay: Antibacterial activity against carbapenem-resistant Acinetobacter baumannii-induced sepsis shock in ICR mouse model assessed as bacterial growth inhibition in lung at 1 mg/kg, ip pretreated with compound for 1 hr followed by bacterial infection measured after 16 hrs relative to control; assay type: functional; conditions: time 17 hrs
Mus musculus [16] = assay: Antiseptic activity in sepsis shock ICR mouse model infected with carbapenem-resistant Acinetobacter baumannii assessed as reduction in bacterial count in lungs at 1 mg/kg, ip pretreated with compound for 3 hrs followed by bacterial infection measured after 16 hrs relative to control; assay type: functional; design: scale not given: the % may be the effect or the level left; conditions: time 19 hrs
Mus musculus [17] = assay: Antiseptic activity in sepsis shock ICR mouse model infected with carbapenem-resistant Acinetobacter baumannii assessed as reduction in serum IL-6 level at 1 mg/kg, ip pre-infected with bacteria followed by compound administration 3 hrs post-infection measured after 16 hrs relative to control; assay type: functional; design: scale not given: the % may be the effect or the level left

Toll-like receptor 4 (Homo sapiens), sequence (O00206 whole entry): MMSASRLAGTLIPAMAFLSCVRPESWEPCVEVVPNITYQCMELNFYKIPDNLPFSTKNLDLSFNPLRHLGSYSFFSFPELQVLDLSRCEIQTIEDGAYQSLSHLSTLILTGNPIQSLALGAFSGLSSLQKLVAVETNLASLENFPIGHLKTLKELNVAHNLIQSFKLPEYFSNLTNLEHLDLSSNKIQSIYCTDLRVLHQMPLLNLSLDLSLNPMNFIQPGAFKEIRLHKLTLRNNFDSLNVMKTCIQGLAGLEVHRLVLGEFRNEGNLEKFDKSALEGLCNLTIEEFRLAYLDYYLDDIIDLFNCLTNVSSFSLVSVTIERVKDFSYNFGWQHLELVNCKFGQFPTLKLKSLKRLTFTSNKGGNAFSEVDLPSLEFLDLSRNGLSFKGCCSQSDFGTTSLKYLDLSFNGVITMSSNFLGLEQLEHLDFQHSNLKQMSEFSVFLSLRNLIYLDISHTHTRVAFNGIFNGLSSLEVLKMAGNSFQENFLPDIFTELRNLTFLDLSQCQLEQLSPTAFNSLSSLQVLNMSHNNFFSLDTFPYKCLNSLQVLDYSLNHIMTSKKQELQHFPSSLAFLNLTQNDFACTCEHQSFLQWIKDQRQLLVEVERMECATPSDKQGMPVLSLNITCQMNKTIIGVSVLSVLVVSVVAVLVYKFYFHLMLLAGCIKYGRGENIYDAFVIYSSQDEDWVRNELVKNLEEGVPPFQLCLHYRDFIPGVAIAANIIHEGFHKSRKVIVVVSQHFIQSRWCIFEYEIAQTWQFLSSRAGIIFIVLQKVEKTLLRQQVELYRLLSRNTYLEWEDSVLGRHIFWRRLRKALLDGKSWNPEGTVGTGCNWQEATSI

In the case of H-GVFRLKKWIKKVIKKWGK-NH2, the Activity (Escherichia coli [1]) is reported as “inactive”, the Stability [2] is reported as “Unstable” and the Activity (Escherichia coli [3]) is reported as “inactive”.
With H-GVFRLKKWLKKVKKWGK-NH2 the Activity (Mus musculus [4]) was 86.3%, the Activity [5] was “Active” and the Activity (Mus musculus [6]) was 97.7%. For the same substance, the inhibition [7] was “Active”, the Activity (Lipopolysaccharide (LPS)) was 75% and the Activity (Mus musculus [8]) was 99.7%. The inhibition [9] was 100%, the inhibition in vivo at 1 mg/kg (Acinetobacter baumannii [10]) was 88.1% and the Activity (Mus musculus [11]) was 99%. For the same substance, the inhibition [12] was 63%, the Activity (Mus musculus [13]) was 90.7% and the inhibition in vivo at 1 mg/kg (Acinetobacter baumannii [14]) was 95.7%. It also gave an inhibition in vivo at 1 mg/kg (Acinetobacter baumannii [15]) of 96.5%, an Activity (Mus musculus [16]) of 98% and an Activity (Mus musculus [17]) of 14.8%.

Reference: ChEMBL document CHEMBL6074662, “Antibacterial, Antibiofilm, and Anti-inflammatory Effects of a Novel Thrombin-Derived Peptide in Sepsis Models: Insights into Underlying Mechanisms” (J Med Chem, 2024)
